# Test results published in patent US20220323406A1, “METHODS AND COMPOSITIONS FOR DIFFERENTIATING STEM CELLS” (Massachusetts Institute of Technology, priority 2019, published 2022).
# Legend:
# [1] = test system: ENR+CD organoids (ISC to Paneth cell differentiation); test: Primary screen: basal (non-stimulated) lysozyme secretion LYZ.NS, 2.5-D 384-well ENR+CD organoid differentiation; type: cell-based, mouse
# Excerpt: (§1) High-throughput screening.
# [2] = test system: ENR+CD organoids (ISC to Paneth cell differentiation); test: Primary screen: CCh-stimulated lysozyme secretion LYZ.S, 2.5-D 384-well ENR+CD organoid differentiation; type: cell-based, mouse; conditions: primary screen
# Excerpt: as §1
# ENR+CD organoids = test: Primary screen: ATP (CellTiter-Glo 3D, CTG) cell number/viability, 2.5-D 384-well ENR+CD organoids;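 further: compounds given at plating and again on day 3 over a 6-day differentiation from ENR+CV stem-cell-enriched precursors, ATP measured on day 6, plate median as control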
# [3] = primary screen, dose 0.08 uM, FC relative to plate median
# [4] = primary screen, dose 0.08 uM, standard z score
# [5] = primary screen, dose 0.40 uM, FC relative to plate median
# [6] = primary screen, dose 0.40 uM, standard z score
# [7] = primary screen, dose 2.00 uM, FC relative to plate median
# [8] = primary screen, dose 2.00 uM, standard z score
# [9] = primary screen, dose 10.00 uM, FC relative to plate median
# [10] = primary screen, dose 10.00 uM, standard z score
# [11] = primary screen, standard z score, dose 0.08 uM
# [12] = primary screen, standard z score, dose 0.40 uM
# [13] = primary screen, standard z score, dose 2.00 uM
# [14] = primary screen, standard z score, dose 10.00 uM
# [15] = primary screen; dose 0.08 uM; FC vs plate median
# [16] = primary screen; dose 0.40 uM; FC vs plate median
# [17] = primary screen; dose 2.00 uM; FC vs plate median
# [18] = primary screen; dose 10.00 uM; FC vs plate median
structure (smiles),measurement,setting,value
CCN1CCN(c2ccc(Nc3cc(N(C)C(=O)Nc4c(Cl)c(OC)cc(OC)c4Cl)ncn3)cc2)CC1 [BGJ398 (NVP-BGJ398)],Dose.FC.LYZ.NS,"[1]; primary screen, dose 0.08 uM",−0.002 log2 fold change
same,Z.LYZ.NS (standard z score),"[1]; primary screen, dose 0.08 uM",−0.017
same,Dose.FC.LYZ.NS,"[1]; primary screen, dose 0.40 uM",−0.060 log2 fold change
same,Z.LYZ.NS (standard z score),"[1]; primary screen, dose 0.40 uM",−0.520
same,Dose.FC.LYZ.NS,"[1]; primary screen, dose 2.00 uM",−0.052 log2 fold change
same,Z.LYZ.NS (standard z score),"[1]; primary screen, dose 2.00 uM",−0.450
same,Dose.FC.LYZ.NS,"[1]; primary screen, dose 10.00 uM",−0.269 log2 fold change
same,Z.LYZ.NS (standard z score),"[1]; primary screen, dose 10.00 uM",−2.345
same,Dose.FC.LYZ.S,[2]; dose 0.08 uM,−0.036 log2 fold change
same,Dose.FC.LYZ.S,[2]; dose 0.40 uM,0.002 log2 fold change
same,Dose.FC.LYZ.S,[2]; dose 2.00 uM,−0.062 log2 fold change
same,Dose.FC.LYZ.S,[2]; dose 10.00 uM,−0.350 log2 fold change
same,Dose.FC.CTG,"ENR+CD organoids; primary screen, dose 0.08 uM",−0.054 log2 fold change
same,Z.CTG (standard z score),"ENR+CD organoids; primary screen, dose 0.08 uM",−0.128
same,Dose.FC.CTG,"ENR+CD organoids; primary screen, dose 0.40 uM",0.026 log2 fold change
same,Z.CTG (standard z score),"ENR+CD organoids; primary screen, dose 0.40 uM",0.063
same,Dose.FC.CTG,"ENR+CD organoids; primary screen, dose 2.00 uM",−0.185 log2 fold change
same,Z.CTG (standard z score),"ENR+CD organoids; primary screen, dose 2.00 uM",−0.442
same,Dose.FC.CTG,"ENR+CD organoids; primary screen, dose 10.00 uM",−1.500 log2 fold change
same,Z.CTG (standard z score),"ENR+CD organoids; primary screen, dose 10.00 uM",−3.583
C[S+]([O-])c1ccc(-c2nc(-c3ccc(F)cc3)c(-c3ccncc3)[nH]2)cc1 (stereo not shown) [SB203580],Dose.FC.LYZ.NS,[1]; [3],0.092 log2 fold change
same,Z.LYZ.NS,[1]; [4],0.805
same,Dose.FC.LYZ.NS,[1]; [5],0.127 log2 fold change
same,Z.LYZ.NS,[1]; [6],1.109
same,Dose.FC.LYZ.NS,[1]; [7],0.052 log2 fold change
same,Z.LYZ.NS,[1]; [8],0.453
same,Dose.FC.LYZ.NS,[1]; [9],0.023 log2 fold change
same,Z.LYZ.NS,[1]; [10],0.199
same,Dose.FC.LYZ.S,"[2]; dose 0.08 uM, FC relative to plate median",0.148 log2 fold change
same,Dose.FC.LYZ.S,"[2]; dose 0.40 uM, FC relative to plate median",0.098 log2 fold change
same,Dose.FC.LYZ.S,"[2]; dose 2.00 uM, FC relative to plate median",0.077 log2 fold change
same,Dose.FC.LYZ.S,"[2]; dose 10.00 uM, FC relative to plate median",0.069 log2 fold change
same,Dose.FC.CTG,ENR+CD organoids; [3],0.201 log2 fold change
same,Z.CTG,ENR+CD organoids; [4],0.479
same,Dose.FC.CTG,ENR+CD organoids; [5],0.149 log2 fold change
same,Z.CTG,ENR+CD organoids; [6],0.356
same,Dose.FC.CTG,ENR+CD organoids; [7],0.237 log2 fold change
same,Z.CTG,ENR+CD organoids; [8],0.567
same,Dose.FC.CTG,ENR+CD organoids; [9],0.182 log2 fold change
same,Z.CTG,ENR+CD organoids; [10],0.435
"CNC(=O)[C@H](Cc1c[nH]c2ccccc12)NC(=O)[C@@H](CC(=O)NO)CC(C)C [Ilomastat (GM6001, Galardin)]",Dose.FC.LYZ.NS (log2 fold change),"[1]; primary screen, dose 0.08 uM",0.055
same,Z.LYZ.NS (standard z score),"[1]; primary screen, dose 0.08 uM",0.482
same,Dose.FC.LYZ.NS (log2 fold change),"[1]; primary screen, dose 0.40 uM",−0.011
same,Z.LYZ.NS (standard z score),"[1]; primary screen, dose 0.40 uM",−0.092
same,Dose.FC.LYZ.NS (log2 fold change),"[1]; primary screen, dose 2.00 uM",0.007
same,Z.LYZ.NS (standard z score),"[1]; primary screen, dose 2.00 uM",0.064
same,Dose.FC.LYZ.NS (log2 fold change),"[1]; primary screen, dose 10.00 uM",−0.106
same,Z.LYZ.NS (standard z score),"[1]; primary screen, dose 10.00 uM",−0.919
same,Dose.FC.LYZ.S (log2 fold change),[2]; dose 0.08 uM,0.214
same,Dose.FC.LYZ.S (log2 fold change),[2]; dose 0.40 uM,0.117
same,Dose.FC.LYZ.S (log2 fold change),[2]; dose 2.00 uM,0.024
same,Dose.FC.LYZ.S (log2 fold change),[2]; dose 10.00 uM,−0.078
same,Dose.FC.CTG (log2 fold change),"ENR+CD organoids; primary screen, dose 0.08 uM",0.197
same,Z.CTG (standard z score),"ENR+CD organoids; primary screen, dose 0.08 uM",0.470
same,Dose.FC.CTG (log2 fold change),"ENR+CD organoids; primary screen, dose 0.40 uM",0.163
same,Z.CTG (standard z score),"ENR+CD organoids; primary screen, dose 0.40 uM",0.389
same,Dose.FC.CTG (log2 fold change),"ENR+CD organoids; primary screen, dose 2.00 uM",0.091
same,Z.CTG (standard z score),"ENR+CD organoids; primary screen, dose 2.00 uM",0.216
same,Dose.FC.CTG (log2 fold change),"ENR+CD organoids; primary screen, dose 10.00 uM",−0.110
same,Z.CTG (standard z score),"ENR+CD organoids; primary screen, dose 10.00 uM",−0.264
O=C(Nc1cccc(Nc2ncc(Br)c(NCCc3cnc[nH]3)n2)c1)N1CCCC1 [BX-912],Dose.FC.LYZ.NS,"[1]; primary screen, dose 0.08 uM",0.010 log2 fold change
same,Dose.FC.LYZ.NS,"[1]; primary screen, dose 0.40 uM",0.017 log2 fold change
same,Dose.FC.LYZ.NS,"[1]; primary screen, dose 2.00 uM",−0.089 log2 fold change
same,Dose.FC.LYZ.NS,"[1]; primary screen, dose 10.00 uM",−0.196 log2 fold change
same,Z.LYZ.NS,[1]; [11],0.090
same,Z.LYZ.NS,[1]; [12],0.151
same,Z.LYZ.NS,[1]; [13],−0.771
same,Z.LYZ.NS,[1]; [14],−1.704
same,Dose.FC.LYZ.S,[2]; dose 0.08 uM,0.038 log2 fold change
same,Dose.FC.LYZ.S,[2]; dose 0.40 uM,0.042 log2 fold change
same,Dose.FC.LYZ.S,[2]; dose 2.00 uM,−0.161 log2 fold change
same,Dose.FC.LYZ.S,[2]; dose 10.00 uM,−0.272 log2 fold change
same,Dose.FC.CTG,"ENR+CD organoids; primary screen, dose 0.08 uM",0.043 log2 fold change
same,Dose.FC.CTG,"ENR+CD organoids; primary screen, dose 0.40 uM",0.054 log2 fold change
same,Dose.FC.CTG,"ENR+CD organoids; primary screen, dose 2.00 uM",−0.246 log2 fold change
same,Dose.FC.CTG,"ENR+CD organoids; primary screen, dose 10.00 uM",−0.397 log2 fold change
same,Z.CTG,ENR+CD organoids; [11],0.103
same,Z.CTG,ENR+CD organoids; [12],0.129
same,Z.CTG,ENR+CD organoids; [13],−0.587
same,Z.CTG,ENR+CD organoids; [14],−0.949
O=c1cc(N2CCOCC2)oc2c1ccc1ccccc12 [NU7026],Z.LYZ.NS,[1]; [4],0.198
same,Z.LYZ.NS,[1]; [6],0.198
same,Z.LYZ.NS,[1]; [8],−0.507
same,Z.LYZ.NS,[1]; [10],−1.380
same,Dose.FC.LYZ.NS,[1]; [15],0.023 log2 fold change
same,Dose.FC.LYZ.NS,[1]; [16],0.023 log2 fold change
same,Dose.FC.LYZ.NS,[1]; [17],−0.058 log2 fold change
same,Dose.FC.LYZ.NS,[1]; [18],−0.158 log2 fold change
same,Dose.FC.LYZ.S,"[2]; dose 0.08 uM, FC vs plate median",0.021 log2 fold change
same,Dose.FC.LYZ.S,"[2]; dose 0.40 uM, FC vs plate median",0.034 log2 fold change
same,Dose.FC.LYZ.S,"[2]; dose 2.00 uM, FC vs plate median",−0.056 log2 fold change
same,Dose.FC.LYZ.S,"[2]; dose 10.00 uM, FC vs plate median",−0.198 log2 fold change
same,Z.CTG,ENR+CD organoids; [4],0.230
same,Z.CTG,ENR+CD organoids; [6],0.248
same,Z.CTG,ENR+CD organoids; [8],0.255
same,Z.CTG,ENR+CD organoids; [10],−0.284
same,Dose.FC.CTG,ENR+CD organoids; [15],0.096 log2 fold change
same,Dose.FC.CTG,ENR+CD organoids; [16],0.104 log2 fold change
same,Dose.FC.CTG,ENR+CD organoids; [17],0.107 log2 fold change
same,Dose.FC.CTG,ENR+CD organoids; [18],−0.119 log2 fold change
